Experimental data reported in patent US20100016240A1, “FACILITATING CELLS AND DIABETES AND METHODS RELATED THERETO” (priority 2008, published 2010).

Tests used:
[1] = test system: p-preDC FC from NOD or NOR mice; assay: Chemokine and cytokine production by p-preDC FC after CpG-ODN stimulation (LINCOplex multiplex immunoassay); format: cell-based, mouse
Protocol: (§1) FIG. 2. Expression of activation markers on FC. (A) Sorted CD8^+/TCR^− FC (100,000) from NOD or NOR BM were cultured with medium or CpG-ODN for 18 h and stained with anti-MHC Class II I-A^d, CD86 or CD80 FITC labeled mAb, or isotype controls. The data shown are representative of three experiments. (B) Level of expression of activation markers on FC with or without CpG-ODN stimulation. The results are percent of CD8^+/TCR^− FC total from 3 separate experiments. (C) The morphology of FC was examined using Wright-Giemsa staining under optical microscopy after CpG-ODN stimulation. (D) P-preDC FC were cultured with CpG-ODN or medium only. Culture cell-free supernatants were collected after 18 h and MIP-1α/CCL3, MCP-1/CCL2, RANTES/CCL5, IP-10, IL-6, GM-CSF, and TNF-α were measured by LINCO plex multiplex immunoassay.
(§2) FC were cultured alone or with 1 μM TLR-9 ligand CpG-ODN 1668 (TCCATGACGTTCCGATGCT) (SEQ ID NO:1) (GIBCO BRL Custom Primers) (13) for 18 h. Supernatants were assayed for cytokines by Linco Diagnostic (St Charles, Mo.) using LINCOplex™ Multiplex immunoassay and cells were stained with anti-CD80, anti-CD86, or anti-MHC class II I-A^d (39-10-8) FITC mAb, with appropriately matched isotype controls.
We also examined chemokine and cytokine production by NOD and NOR p-preDC FC after CpG-ODN stimulation. In the presence of CpG-ODN, p-preDC FC produced more MIP-1α/CCL3, RANTES/CCL5, IP-10, IL-6, and TNF-α, compared to the level of those in absence of stimulation (FIG. 2D).

[2] = test system: p-preDC FC; conditions: cited from earlier work
[3] = test system: CD8+/TCR- FC from NOD or NOR BM; assay: Activation markers and morphology of sorted CD8+/TCR- FC cultured with CpG-ODN; format: cell-based, mouse
Protocol: as §1, §2
(§3) Wright-Giemsa staining was performed on cytospins of 100,000 FC after fixed in methanol. Slides were examined for dendritic morphology under optical microscopy.
We evaluated whether NOD FC resemble NOR FC in response to CpG-ODN stimulation.

[4] = test system: NOD mice; conditions: cited from earlier work
[5] = test system: HSC engraftment in B10 recipients; assay: Facilitation of HSC engraftment by FL-mobilized PB FC in allogeneic recipients (NOD to B10); format: in vivo, mouse
Protocol: (§4) FIG. 6. FL-mobilized PB FC facilitate HSC engraftment in allogeneic recipients. Recombinant human FL (expressed from CHO cells) (kindly provided by Amgen; Thousand Oaks, Calif.) was diluted in 0.1% mouse serum albumin (MSA; Sigma, St Louis, Mo.) at a concentration of 100 μg/ml. Donor NOD female mice were injected with 10 μg of FL once daily subcutaneously from day 0 to day 9. Control mice received saline injections. (A) Flow cytometric analysis of subpopulations in sorted FL-mobilized PB FC. (B) Sorted FL-PB FC were examined after Wright-Giemsa staining by optical microscopy. (C) Survival of recipients of HSC plus FL-mobilized PB FC in allogeneic model (NOD→B10). B10 recipients were conditioned with 950 cGy TBI and transplanted with […] from untreated NOD donors either alone or mixed with 30,000 purified FC from untreated NOD bone marrow, or from FL-mobilized PB FC from NOD mice. (D) and (E) Multilineage typing of representative B10 recipients of NOD HSC alone or recipients of NOD HSC plus FL-PB FC. Multilineage data are from PB 3 months after transplantation and analyzed based on the lymphoid and myeloid gate. Data shown are from one representative recipient. A total of 3 to 5 recipients were analyzed per group.
In the syngeneic model, recipients were conditioned with 950 cGy TBI from a Cesium source (Nordion, Ontario, ON, Canada) and transplanted with 500 HSC±30,000 FC populations by tail vein injection≧6 h after irradiation (14). In the allogeneic model, recipients conditioned with 950 cGy TBI were transplanted with 5,000 HSC±30,000 FL-PB FC (4).
Engraftment of donor cells was evaluated by PBL typing using 3-color flow cytometry, as previously described (15).
It was next evaluated whether FL-treatment can restore the facilitating function of NOD FC. […] To test function of FL-PB FC, HSC were sorted from BM of untreated NOD mice and FC from the PB of FL-treated NOD mice. Conditioned B10 recipients received 5,000 HSC plus 30,000 FL-PB FC. Control mice were transplanted with 5,000 HSC±30,000 FC from BM of untreated NOD mice. […] 13% and 20% of recipients of HSC alone (n=9) or HSC plus FC (n=8) from untreated NOD mice survived over 120 days, respectively (FIG. 6C).
Three-color flow cytometric analysis was performed.

[6] = test system: FC in peripheral blood of NOD mice; assay: FL treatment of NOD donor mice: phenotype and morphology of FL-mobilized PB FC; format: in vivo, mouse
Protocol: as §4
Sorted FC (purity was ≧95%) were incubated with Fc receptor block (anti-CD16/CD32) before staining with lineage-specific markers: anti-CD11 FITC, CD11b APC, CD14 FITC, NK1.1 FITC, DX5 FITC, B220 PerCP, Gr-1 APC and CD19 APC, as previously described (4). Sorted FC were analyzed for p-preDC FC as B220^+/CD11c^+/CD11b^− using Cell Quest Software (Becton Dickinson).
as §3
To test whether FL-treatment can restore the function of NOD FC, the phenotype and function of FL-PB FCs were evaluated. NOD mice were treated with FL for 10 days. FC were sorted from PB, and sorted FC were stained with B220, CD11c, CD19, NK1.1DX5, and CD11b mAbs.

[7] = test system: PB p-preDC; conditions: administration of FL into human volunteers; cited from earlier work
[8] = in response to CpG-ODN stimulation
[9] = with CpG-ODN compared to absence of stimulation, 18 h supernatant
[10] = treatment of NOD donors with FL
[11] = FL-PB FC versus untreated NOD BM FC
[12] = NOD mice, 10 μg FL once daily s.c. for 10 days, FC sorted from PB

## CpG-ODN: TLR-9 ligand CpG-ODN 1668 (TCCATGACGTTCCGATGCT) (SEQ ID NO:1) (listed as DNA, chemistry not given here)
[1]; after CpG-ODN stimulation
  IL-6 amount, NOR p-preDC FC compared to NOD p-preDC FC: 5 ×
  MIP-1α/CCL3 amount, NOR p-preDC FC compared to NOD p-preDC FC: 2.1 ×
  RANTES/CCL5 amount, NOR p-preDC FC compared to NOD p-preDC FC: 3.5 ×
  TNF-α amount, NOR p-preDC FC compared to NOD p-preDC FC: 1.9 ×
[1]; [8]
  GM-CSF production by NOD p-preDC FC: do not
  GM-CSF production by NOR p-preDC FC: more efficiently
[1]; [9]
  IL-6 production by p-preDC FC: produced more
  IP-10 production by p-preDC FC: produced more
  MIP-1α/CCL3 production by p-preDC FC: produced more
  RANTES/CCL5 production by p-preDC FC: produced more
  TNF-α production by p-preDC FC: produced more
[2]; in response to TLR-9 ligand (CpG-ODN) stimulation
  Interferon (IFN)-α and tumor necrosis factor (TNF)-α production by p-preDC FC: produce
[2]; p-preDC FC stimulated with CpG-ODN
  CD4+/CD25- T cells differentiation into CD4+/CD25+/FoxP3+ Treg cells in vitro: promote
[3]; NOD BM FC, 1 μM CpG-ODN, 18 h
  CD80 expression on NOD FC: markedly decreased
  CD86 expression on NOD FC: up-regulated
[3]; NOD FC after CpG treatment, Wright-Giemsa
  Morphology of NOD FC: did not exhibit a mature morphology
[3]; NOR BM FC, 1 μM CpG-ODN, 18 h
  CD86 expression on NOR FC: up-regulated
[3]; NOR FC after CpG-ODN stimulation, compared to NOD FC, Wright-Giemsa
  Morphology / activation state of NOR FC: more activated state

B1: FL: Recombinant human FL (expressed from CHO cells), provided by Amgen; human FLT3 ligand sequence shown in SEQ ID NO:2 (protein)
chain: MTVLAPAWSPTTYLLLLLLLSSGLSGTQDCSFQHSPISSDFAVKIRELSDYLLQDYPVTVASNLQDEELCGGLWRLVLAQRWMERLKTVAGSKMQGLLERVNTEIHFVTKCAFQPPPSCLRFVQTNISRLLQETSEQLVALKPWITRQNFSRCLELQCQPDSSTLPPPWSPRPLEATAPTAPQPPLLLLLLLPVGLLLLAAAWCLHWQRTRRRTPRPGEQVPPVPSPQDLLLVEH
modifications: Homo sapien
[4]; FL treatment of NOD mice
  Diabetes progression: significant delay
  Production of defective mature myeloid DC, plasmacytoid DC in spleen and pancreatic lymph nodes: restored production
  Treg in pancreatic lymph nodes: significantly increased
[4]; prediabetic NOD mice treated with FL
  Insulitis and progression to diabetes: significantly decreased
[5]; B10 recipients (950 cGy TBI) of 5,000 untreated NOD HSC plus 30,000 PB FC from FL-treated NOD mice, n=8
  Recipients survived 120 days: 63%
[5]; HSC plus PB FC from FL-treated NOD mice in B10 recipients
  Engraftment of HSC: significantly enhanced
[5]; recipients of HSC plus FL-PB FC, followed >4 months, three-color flow cytometry
  Multilineage donor chimerism: showed donor chimerism for multilineages
[5]; [10]
  Facilitating function of NOD FC in vivo: restored
[6]; [11]
  Percentage of CD19+ FC: remained at same levels
  Percentage of p-preDC FC: remained at same levels
[6]; [12]
  B220-/CD11c+/CD11b+ DC subpopulation in FL-PB FC: significant increase
  NK1.1+DX5+ subpopulation in FL-PB FC: significant increase
[6]; [10]
  Total number of FCs in peripheral blood: expanded
[6]; versus untreated NOD BM FC, Wright-Giemsa
  Activation state (dendritic morphology) of FL mobilized NOD PB FC: more activated state
[7]
  Number of PB p-preDC in humans: increase
